# Results published in the C3SDB collision cross section collection.
# Legend:
# [1] = instrument: DT, stepped-field
# [2] = instrument: DT, single field, calibrated with Agilent tune mix (Agilent)
# [3] = instrument: DT, stepped-field; remark: listed apart in the source
compound,measurement,setting,value
C[C@H]1O[C@@H](n2cnc3c(N)ncnc32)[C@H](O)[C@@H]1O [5'-Deoxyadenosine],collision cross section (N2),[1]; [M+H]+,162.1 Å²
same,collision cross section (N2),[1]; [M+Na]+,171.99 Å²
same,collision cross section (N2),[2]; [M+Na]+,166.8 Å²
same,collision cross section (N2),[2]; [M-H]-,151.91 Å²
Cn1c(=O)c2c(ncn2C)n(C)c1=O [Caffeine],collision cross section (N2),[1]; [M+H]+,145.4 Å²
same,collision cross section (N2),[1]; [M+Na]+,142.93 Å²
same,collision cross section (N2),[2]; [M+H]+,140.9 Å²
OC[C@H]1O[C@@H](O[C@H]2[C@H](O)[C@@H](O)[C@H](O)O[C@@H]2CO)[C@H](O)[C@@H](O)[C@@H]1O [Cellobiose],collision cross section (N2),[1]; [M+Na]+,178.66 Å²
same,collision cross section (N2),[2]; [M+Na]+,178.1 Å²
CCCCCCCCCCCCCCCCCC(=O)N[C@@H](CO)[C@H](O)CCCCCCCCCCCCCCC [Cer(36:00)],collision cross section (N2),[3]; [M+H]+,261.92 Å²
CCCCCCCCCCCCCCCCCCCC(=O)N[C@@H](CO)[C@H](O)CCCCCCCCCCCCCCC [Cer(38:00)],collision cross section (N2),[3]; [M+H]+,267.37 Å²
CCCCCCCCCCCCC=CC[C@@H](O)[C@H](CO)NC(=O)CC=CCCCCCCCCCCCCCCCCCC [Cer(40:02)],collision cross section (N2),[3]; [M+H-H2O]+,267.47 Å²
same,collision cross section (N2),[3]; [M+H]+,272.27 Å²
CCCCCCCCCCCCC=CC[C@@H](O)[C@H](CO)NC(=O)CC=CCCCCCCCCCCCCCCCCCCCCCC [Cer(44:02)],collision cross section (N2),[3]; [M+H-H2O]+,279.7 Å²
OCC1(O)OC[C@@H](O)[C@@H](O)[C@@H]1O (stereo partly drawn) [D-Fructose],collision cross section (N2),[1]; [M+Na]+,141.93 Å²
same,collision cross section (N2),[2]; [M+Na]+,141.4 Å²
Nc1ccn([C@H]2C[C@H](O)[C@@H](CO)O2)c(=O)n1 [Deoxycytidine],collision cross section (N2),[1]; [M+Na]+,158.41 Å²
same,collision cross section (N2),[2]; [M+Na]+,154.5 Å²
same,collision cross section (N2),[2]; [M-H]-,146.84 Å²
O=C(COP(=O)(O)O)[C@@H](O)[C@H](O)[C@H](O)CO [Fructose-1-phosphate],collision cross section (N2),[1]; [M+Na]+,159.68 Å²
same,collision cross section (N2),[2]; [M+Na]+,155.4 Å²
same,collision cross section (N2),[2]; [M-H]-,141.86 Å²
CCCCCCCCCCCCCCCCCC(=O)N[C@@H](CO[C@@H]1O[C@H](CO)[C@@H](O)C(O)C1O)[C@H](O)CCCCCCCCCCCCCCC (stereo not given in full) [GlcCer(36:00)],collision cross section (N2),[3]; [M+H]+,284.59 Å²
CCCCCCCCCCCCC=CC[C@@H](O)[C@H](CO[C@@H]1O[C@H](CO)[C@@H](O)C(O)C1O)NC(=O)CC=CCCCCCCCCCCCCCC (stereo not given in full) [GlcCer(36:02)],collision cross section (N2),[3]; [M+H]+,281.37 Å²
same,collision cross section (N2),[3]; [M+Na]+,281.52 Å²
CCCCCCCCCCCCC=CC[C@@H](O)[C@H](CO[C@@H]1O[C@H](CO)[C@@H](O)C(O)C1O)NC(=O)CCCCCCCCCCCCCCCCCCCC (stereo not given in full) [GlcCer(39:01)],collision cross section (N2),[3]; [M+Na]+,291.95 Å²
CCCCCCCCCCCCC=CC[C@@H](O)[C@H](CO[C@@H]1O[C@H](CO)[C@@H](O)C(O)C1O)NC(=O)CC=CCC=CCCCCCCCCCCCCCCC (stereo not given in full) [GlcCer(40:03)],collision cross section (N2),[3]; [M+Na]+,290.28 Å²
CCCCCCCCCCCCCCCCCCCCCCCC(=O)N[C@@H](CO[C@@H]1O[C@H](CO)[C@@H](O)C(O)C1O)[C@H](O)CCCCCCCCCCCCCCC (stereo not given in full) [GlcCer(42:00)],collision cross section (N2),[3]; [M+H]+,302.3 Å²
same,collision cross section (N2),[3]; [M+Na]+,303.14 Å²
CCCCCCCCCCCCC=CC[C@@H](O)[C@H](CO[C@@H]1O[C@H](CO)[C@@H](O)C(O)C1O)NC(=O)CC=CCCCCCCCCCCCCCCCCCCCC (stereo not given in full) [GlcCer(42:02)],collision cross section (N2),[3]; [M+Cl]-,298.77 Å²
same,collision cross section (N2),[3]; [M+H-H2O]+,296.4 Å²
same,collision cross section (N2),[3]; [M+HCOO]-,301.95 Å²
same,collision cross section (N2),[3]; [M+H]+,299.26 Å²
same,collision cross section (N2),[3]; [M+Na]+,299.53 Å²
CCCCCCCCCCCCCCCCCCCCCCCCCCCCC(=O)N[C@@H](CO[C@@H]1O[C@H](CO)[C@@H](O)C(O)C1O)[C@H](O)CCCCCCCCCCCCCCC (stereo not given in full) [GlcCer(47:00)],collision cross section (N2),[3]; [M+Na-2H2O]+,313.61 Å²
Cn1cncc1C[C@H](NC(=O)CCN)C(=O)O [L-Anserine],collision cross section (N2),[1]; [M+H]+,155.97 Å²
same,collision cross section (N2),[1]; [M+Na]+,159.77 Å²
same,collision cross section (N2),[2]; [M+H]+,154.1 Å²
same,collision cross section (N2),[2]; [M-H]-,152.32 Å²
CC(=O)NCCCCN [N-Acetylputrescine],collision cross section (N2),[1]; [M+H]+,131.7 Å²
same,collision cross section (N2),[1]; [M+Na]+,137.57 Å²
same,collision cross section (N2),[2]; [M+H]+,128.3 Å²
same,collision cross section (N2),[2]; [M-H]-,127.22 Å²
C[C@@H]1O[C@@H](O[C@H]2[C@H](Oc3cc(O)c4c(c3)O[C@H](c3ccc(O)cc3)CC4=O)O[C@H](CO)[C@@H](O)[C@@H]2O)[C@H](O)[C@H](O)[C@H]1O [Naringin],collision cross section (N2),[1]; [M+H]+,240.62 Å²
same,collision cross section (N2),[1]; [M+Na]+,234.02 Å²
same,collision cross section (N2),[2]; [M+H]+,237.5 Å²
CCCCC/C=C\C/C=C\CCCCCCCCCC(=O)O[C@H](COC(=O)CCCCCCC/C=C\CCCCCC)COP(=O)(O)O [PA(36:03)],collision cross section (N2),[3]; [M+2Na-H]+,271.74 Å²
same,collision cross section (N2),[3]; [M+Na]+,270.97 Å²
CCCCC/C=C\C/C=C\CCCCCCCCCCCC(=O)O[C@H](COC(=O)CCCCCCCCCCCCCCC)COP(=O)(O)O [PA(38:02)],collision cross section (N2),[3]; [M+Na]+,279.74 Å²
CCCCC/C=C\C/C=C\CCCCCCCCCC(=O)O[C@H](COC(=O)CCCCCCC/C=C\CCCCCCCC)COP(=O)(O)O [PA(38:03)],collision cross section (N2),[3]; [M+2Na-H]+,279.8 Å²
same,collision cross section (N2),[3]; [M+Na]+,277.43 Å²
CCCCC/C=C\C/C=C\C/C=C\C/C=C\CCCCCC(=O)O[C@H](COC(=O)CCCCCCC/C=C\CCCCCCCC)COP(=O)(O)O [PA(40:05)],collision cross section (N2),[3]; [M+2Na-H]+,283.07 Å²
same,collision cross section (N2),[3]; [M+Na]+,281.79 Å²
CCCCCCCC/C=C\CCCCCCCCCC(=O)O[C@H](COC(=O)CCCCCCCCCCC)COP(=O)([O-])OCC[N+](C)(C)C [PC(32:01)],collision cross section (N2),[3]; [M+HCOO]-,284.71 Å²
same,collision cross section (N2),[3]; [M+H]+,276.5 Å²
same,collision cross section (N2),[3]; [M+Na]+,279.16 Å²
CCCCC/C=C\C/C=C\CCCCCCCC(=O)O[C@H](COC(=O)CCCCCCCCCCCCC)COP(=O)([O-])OCC[N+](C)(C)C [PC(32:02)],collision cross section (N2),[3]; [M+Na]+,276.86 Å²
CCCCCC/C=C\CCCCCCCCCC(=O)O[C@H](COC(=O)CCCCCCC/C=C\CCCCCC)COP(=O)([O-])OCC[N+](C)(C)C [PC(34:02)],collision cross section (N2),[3]; [M+Cl]-,289.37 Å²
same,collision cross section (N2),[3]; [M+HCOO]-,289.31 Å²
same,collision cross section (N2),[3]; [M+H]+,279.51 Å²
same,collision cross section (N2),[3]; [M+K]+,283.28 Å²
same,collision cross section (N2),[3]; [M+Na]+,283.1 Å²
CCCC/C=C\CCCCCCCC(=O)OC[C@H](COP(=O)([O-])OCC[N+](C)(C)C)OC(=O)CCCCCCCCC/C=C\C/C=C\CCCCC [PC(34:03)],collision cross section (N2),[3]; [M+Cl]-,287.96 Å²
same,collision cross section (N2),[3]; [M+HCOO]-,288.8 Å²
same,collision cross section (N2),[3]; [M+H]+,277.12 Å²
same,collision cross section (N2),[3]; [M+Na]+,281.98 Å²
CCCCCCCC/C=C\CCCCCCCC(=O)O[C@H](COC(=O)CCCCCCCCCCCCCCCC)COP(=O)([O-])OCC[N+](C)(C)C [PC(35:01)],collision cross section (N2),[3]; [M+H]+,284.63 Å²
same,collision cross section (N2),[3]; [M+Na]+,287.14 Å²
C[C@@H]1O[C@@H](OC[C@H]2O[C@@H](Oc3c(-c4ccc(O)c(O)c4)oc4cc(O)cc(O)c4c3=O)[C@H](O)[C@@H](O)[C@@H]2O)[C@H](O)[C@H](O)[C@H]1O [Rutin],collision cross section (N2),[1]; [M+H]+,236.2 Å²
same,collision cross section (N2),[1]; [M+Na]+,251.61 Å²
same,collision cross section (N2),[2]; [M+H]+,232.6 Å²
same,collision cross section (N2),[2]; [M-H]-,231.04 Å²
NCCc1c[nH]c2ccc(O)cc12 [Serotonin],collision cross section (N2),[1]; [M+H]+,151.9 Å²
same,collision cross section (N2),[1]; [M+Na]+,150.8 Å²
same,collision cross section (N2),[2]; [M-H]-,135.85 Å²
